# Values quoted from earlier work in US20060035317A1, “Effect of treatment with 4,5-dihydroxy-2-cyclopenten-1-one (dhcp) on gene expression and quorum-sensing in bacteria” (priority 2002, published 2006).
# Where two headings read alike, the source gives them in different places.
# System: E. coli JM83
# Details: DHCP 250 μM, Phadtare et al., 2001, cited from earlier work
compound,measurement,setting,value
"O=C1C=CC(O)C1O (centres unmarked) [DHCP, 4,5-dihydroxy-2-cyclopenten-1-one]",Growth of E. coli JM83,after 3 h of incubation,severely impaired
same,Growth of E. coli JM83,after 5 h,stopped growing
